The source of these data is the NIST ThermoML archive (doi:10.1021/je800446c).

Numbers after ± are expanded uncertainties.

The conditions of the data set: 298.15 K; 101.33 kPa; Liquid; Pycnometric method.
For the molecule `CC(C)O` [propan-2-ol], the mass density is listed as 781.35 ± 0.7 kg/m3.
As for `CCO` [ethanol], the figure is 785.35 ± 0.71 kg/m3; as for `CCCCO` [butan-1-ol], 805.85 ± 0.72 kg/m3.
For `CCCO` [propan-1-ol], the mass density came to 799.98 ± 0.72 kg/m3.
As for `CCC(C)O` (stereo unspecified) [butan-2-ol], the figure is 802 ± 1 kg/m3.
For the molecule `CO` [methanol], the mass density stood at 786.57 ± 0.71 kg/m3.
